Test results reported in patent US20240091366A1, “NOVEL ACID-SENSITIVE APTAMER TRIPTOLIDE CONJUGATE AND APPLICATIONS” (priority 2022, published 2024).
Where “and” joins values, the source holds several entries; their conditions need not be identical. Identical values can stand only once.

Key:
[1] = Body weight during administration, breast cancer model; conditions: mouse, in vivo
Procedure: (§1) Specific experimental protocol: Female nude mice were reared for 6-7 weeks under standard environment, breast cancer cells MDA-MB-231 were suspended in serum-free medium, and each mouse was inoculated with 6*10^6 tumor cells. When the tumor volume reached 50-100 mm^3, the mice were randomly divided into 4 groups, and were injected with aptamer triptolide conjugate, triptolide, and aptamer by tail vein, respectively, 12 mice in each group. A PBS negative control group was set up. […] The drugs were administered once every 2 days for 8 consecutive doses, and the experiment was ended 24 hours after the last dose. At the end of the experiment, the animals were executed by breaking the cervical vertebrae, and the tumors were stripped and weighed to calculate the tumor growth inhibition rate of the drug. The t-test was used to compare the tumor weight, tumor volume, RTV and other indexes of the animals in each group.

[2] = system: human embryonic kidney cells HEK293; assay: MTT assay, cytotoxicity on normal cells; format: cell-based; conditions: 48 h, samples 1-3
Procedure: (§2) The same materials as those in Part II above are not repeated here, in addition to the following: human normal hepatocytes LO2, human embryonic kidney cells HEK293 were purchased from the Shanghai Cell Bank of the Chinese Academy of Sciences and preserved in our laboratory.
(§3) Take the […] LO2 and HEK293 cell lines from the liquid nitrogen tank, place them in a 37° C. water bath, wait for the frozen cells to melt into cell suspension, centrifuge the cells at 1000 r/min for 3 min, discard the supernatant, add 1 ml of fresh complete medium containing 10% fetal bovine serum and 1% double antibody to mix the cells, then add 5 ml of medium, gently and repeatedly blowing the cells with a pipette gun to make them mix well. Then add 5 ml of medium, blow the cells gently and repeatedly with a pipette gun to mix them well, and finally transfer the cell suspension to a […] and label the cell name, cell number, date of resuscitation and the operator's name, and place it in a cell culture incubator for cultivation. (HEK293 cell line was cultured with DMEM medium, LO2 cell line was cultured with RPMI1640 medium)
(§4) Take LO2 and HEK293 cells with good growth status, remove the medium, add 1 ml of sterile PBS to wash, add 1.5 ml of trypsin to digest the cells, about 2 min later the cells become round and fall off, add 1.5 ml of medium to terminate the digestion, transfer it to centrifugal tube, centrifuge at 1000 r/min for 3 min, discard the supernatant, add 1 ml of fresh medium to resuspend, then add fresh medium for 1:3 distribution to other culture dishes, and label the date of transmission and the number of generations. Place in the cell culture incubator for cultivation.
(§5) Take LO2 and HEK293 cells with good growth status, by the same operation as the cell passaging experiment, after cell resuspension, cell counting with hemocyte counting plate, with 3000 cells/well, plant in 96-well plate, after 24 h of cell culture, remove the original medium, add medium containing different concentrations of drugs and continue to cultivate for 48 hours. After 24 h of cell culture, the original medium was removed and the medium containing different concentrations of drugs was added to continue the culture for 48 hours. […] The above steps were repeated three times.

[3] = system: human normal hepatocytes LO2; assay: MTT assay, cytotoxicity on normal cells; format: cell-based; conditions: 48 h, 48 h, samples 1-3
Procedure: as §2, §3, §4, §5

[4] = system: colon cancer cells HCT116; assay: In vivo antitumor activity, colon cancer xenograft in nude mice; set-up: species or system mouse; Tumor weight: unit not given here; conditions: HCT116 model, once every 2 days, 8 doses
Description: (§6) The following are the in vivo activity studies conducted in different tumor-bearing mice:
(§7) A PBS negative control group was set up.

[5] = system: breast cancer cells MDA-MB-231; assay: In vivo antitumor activity, breast cancer xenograft in nude mice; set-up: species or system mouse; Tumor weight: unit not given here; conditions: MDA-MB-231 model, once every 2 days, 8 doses
Description: as §6
The materials used in the experiments were the same as those tested in 5.1 Colon cancer cell lines, differing only in the tumor strains.
as §7

[6] = system: lung cancer cell line A549; assay: In vivo antitumor activity, lung cancer xenograft in nude mice; set-up: species or system mouse; Tumor weight: unit not given here; conditions: A549 model, once every 2 days, 8 doses
Description: as §6, §7

[7] = Body weight during administration, lung cancer model; conditions: mouse, in vivo
Procedure: as §1, with “Experimental” for “Specific experimental”, “lung” for “breast”, “cell line A549” for “cells MDA-MB-231”

## CC(C)[C@]12O[C@H]1[C@@H]1O[C@]13[C@]1(O[C@H]1C[C@H]1C4=C(CC[C@@]13C)C(=O)OC4)[C@@H]2O [TP, Triptolide]
[1]
  body weights of mice: basically maintained in the tolerable range of animal toxicity and side-effects
[2]; HEK293, 3.1 nM, 0.0031 µM
  cell proliferation inhibition rate: 30.4489 and 32.7054
[2]; HEK293, 6.3 nM, 0.0063 µM
  cell proliferation inhibition rate: 53.1149 and 51.3265
[2]; HEK293, 12.5 nM, 0.0125 µM
  cell proliferation inhibition rate: 70.4830 and 71.1686
[2]; HEK293, 25.0 nM, 0.025 µM
  cell proliferation inhibition rate: 73.0686 and 75.7495
[2]; HEK293, 50.0 nM, 0.05 µM
  cell proliferation inhibition rate: 81.0372
[2]; HEK293, 100.0 nM, 0.1 µM
  cell proliferation inhibition rate: 94.3972 and 99.2908
[2]; HEK293, 200.0 nM, 0.2 µM
  cell proliferation inhibition rate: 95.3901 and 100.6383
[2]; Homo sapiens, HEK293, 48 h, HEK293, 3.1 nM, read-out: cell proliferation inhibition rate
  inhibition at 0.0031 µM: 35.1%
[2]; Homo sapiens, HEK293, 48 h, HEK293, 6.3 nM, read-out: cell proliferation inhibition rate
  inhibition at 0.0063 µM: 59.9%
[2]; Homo sapiens, HEK293, 48 h, HEK293, 12.5 nM, read-out: cell proliferation inhibition rate
  inhibition at 0.0125 µM: 69.3%
[2]; Homo sapiens, HEK293, 48 h, HEK293, 25.0 nM, read-out: cell proliferation inhibition rate
  inhibition at 0.025 µM: 79.5%
[2]; Homo sapiens, HEK293, 48 h, HEK293, 50.0 nM, read-out: cell proliferation inhibition rate
  inhibition at 0.05 µM: 89.5%
[2]; Homo sapiens, HEK293, 48 h, HEK293, 100.0 nM, read-out: cell proliferation inhibition rate
  inhibition at 0.1 µM: 99.9%
[2]; Homo sapiens, HEK293, 48 h, HEK293, 200.0 nM, read-out: cell proliferation inhibition rate
  inhibition at 0.2 µM: 98.3%
[3]; Homo sapiens, Hepatocyte, LO2, 3.1 nM, read-out: cell proliferation inhibition rate
  inhibition at 0.0031 µM: 21.4%
[3]; Homo sapiens, Hepatocyte, LO2, 6.3 nM, read-out: cell proliferation inhibition rate
  inhibition at 0.0063 µM: 32%
[3]; Homo sapiens, Hepatocyte, LO2, 12.5 nM, read-out: cell proliferation inhibition rate
  inhibition at 0.0125 µM: 66.4%
[3]; Homo sapiens, Hepatocyte, LO2, 25.0 nM, read-out: cell proliferation inhibition rate
  inhibition at 0.025 µM: 74.1%
[3]; Homo sapiens, Hepatocyte, LO2, 50.0 nM, read-out: cell proliferation inhibition rate
  inhibition at 0.05 µM: 88.7%
[3]; Homo sapiens, Hepatocyte, LO2, 100.0 nM, read-out: cell proliferation inhibition rate
  inhibition at 0.1 µM: 96.3%
[3]; Homo sapiens, Hepatocyte, LO2, 200.0 nM, read-out: cell proliferation inhibition rate
  inhibition at 0.2 µM: 94%
[3]; LO2, 3.1 nM, 0.0031 µM
  cell proliferation inhibition rate: 23.3551 and 17.9111
[3]; LO2, 6.3 nM, 0.0063 µM
  cell proliferation inhibition rate: 40.8401 and 42.6158
[3]; LO2, 12.5 nM, 0.0125 µM
  cell proliferation inhibition rate: 59.2076 and 65.5783
[3]; LO2, 25.0 nM, 0.025 µM
  cell proliferation inhibition rate: 73.3084 and 73.3954
[3]; LO2, 50.0 nM, 0.05 µM
  cell proliferation inhibition rate: 87.4474 and 84.6990
[3]; LO2, 100.0 nM, 0.1 µM
  cell proliferation inhibition rate: 97.7552 and 82.0308
[3]; LO2, 200.0 nM, 0.2 µM
  cell proliferation inhibition rate: 99.8060 and 96.6312
[4]; 10 μM 100 μL tail vein
  RTV: 23.31 ± 0.31
  T/C (%): 65.57%
  Tumor inhibition rate (%): 25.80%
  Tumor weight: 2.31 ± 0.24
[4]; 30 μM 100 μL tail vein
  RTV: 16.68 ± 0.19
  T/C (%): 46.92%
  Tumor inhibition rate (%): 45.16%
  Tumor weight: 1.76 ± 0.13
[4]; 50 μM 100 μL tail vein
  RTV: 10.09 ± 0.28
  T/C (%): 28.38%
  Tumor inhibition rate (%): 64.51%
  Tumor weight: 1.11 ± 0.25
[5]; 10 μM tail vein
  RTV: 27.18 ± 47
  T/C (%): 65.57%
  Tumor inhibition rate (%): 31.78%
  Tumor weight: 2.34 ± 0.39
[5]; 30 μM tail vein
  RTV: 16.44 ± 31
  T/C (%): 39.66%
  Tumor inhibition rate (%): 48.40%
  Tumor weight: 1.77 ± 0.51
[5]; 50 μM tail vein
  RTV: 12.89 ± 55
  T/C (%): 31.10%
  Tumor inhibition rate (%): 74.05%
  Tumor weight: 0.89 ± 0.08
[6]; 10 μM tail vein
  RTV: 26.1 ± 0.09
  T/C (%): 51.81%
  Tumor inhibition rate (%): 27.27%
  Tumor weight: 2.47 ± 0.08
[6]; 30 μM tail vein
  RTV: 17.91 ± 0.27
  T/C (%): 31.59%
  Tumor inhibition rate (%): 48.48%
  Tumor weight: 1.79 ± 0.19
[6]; 50 μM tail vein
  RTV: 10.92 ± 0.15
  T/C (%): 89.93%
  Tumor inhibition rate (%): 63.64%
  Tumor weight: 1.29 ± 0.27
[7]
  body weights of mice: basically maintained in the tolerable range of animal toxicity and side-effects
